Experiments:
Assay in all cases: Preservative/disinfectant system efficacy testing (log reduction)
Type in all cases: cell-based
[1] = system: Staphylococcus aureus (ATCC 6538)
Method: (§1) The ophthalmic compositions are evaluated in accordance with specific procedures outlined by the US Food & Drug Administration and the International Organization for Standardization for the testing of microbiocidal efficacy.

[2] = system: Serratia marcescens (ATCC 13880)
Method: as §1

[3] = system: Pseudomonas aeruginosa (ATCC 9027)
Method: as §1

[4] = system: Candida albicans (ATCC 10231)
Method: as §1

[5] = system: Fusarium solani (ATCC 36031)
Method: as §1

[6] = 1 hr, Table 8A multi-purpose lens care formulation, disinfectant concentrations as in label
[7] = 1 hr, phosphate buffered saline, concentrations as in label (Table 7)
[8] = 4 hr, Table 8A multi-purpose lens care formulation, disinfectant concentrations as in label
[9] = 4 hr, phosphate buffered saline, concentrations as in label (Table 7)
[10] = 1 hr, Table 5A multi-purpose lens care solution, 10% organic soil, disinfectant concentrations as in label
[11] = 1 hr, phosphate buffered saline, 10% organic soil, concentrations as in label (Table 4)
[12] = 4 hr, Table 5A multi-purpose lens care solution, 10% organic soil, disinfectant concentrations as in label
[13] = 4 hr, phosphate buffered saline, 10% organic soil, concentrations as in label (Table 4)

| Structure (SMILES) | log reduction S. aureus [1, 6] | log reduction S. aureus [1, 7] | log reduction S. aureus [1, 8] | log reduction S. aureus [1, 9] | log reduction S. marcescens [2, 6] | log reduction S. marcescens [2, 7] | log reduction S. marcescens [2, 8] | log reduction S. marcescens [2, 9] | log reduction P. aeruginosa [3, 6] | log reduction P. aeruginosa [3, 7] | log reduction P. aeruginosa [3, 8] | log reduction P. aeruginosa [3, 9] | log reduction C. albicans [4, 6] | log reduction C. albicans [4, 7] | log reduction C. albicans [4, 8] | log reduction C. albicans [4, 9] | log reduction F. solani [5, 6] | log reduction F. solani [5, 7] | log reduction F. solani [5, 8] | log reduction F. solani [5, 9] | also measured |
| --- | --- | --- | --- | --- | --- | --- | --- | --- | --- | --- | --- | --- | --- | --- | --- | --- | --- | --- | --- | --- | --- |
| CCCCC(CC)CNCC(O)CO (stereo not drawn) [EHAPD, 3-[(2-ethylhexyl)amino]-1,2-propanediol] | 1.2 | 1.4 | 1.2 | 1.4 | 2.7 | 3.3 | 3.2 | 3.8 | 1.2 | 1.4 | 1.3 | 1.4 | 2.4 | >5.0 | 2.6 | >5.0 | 2.4 | 2.3 | 4.8 | 5.2 |  |
| CCCCC(CC)CNC(=N)NC(=N)NCCCCCCNC(=N)NC(=N)NCC(CC)CCCC (stereo not drawn) [alexidine, reference compound] | 3.3 | 1.4 | 3.8 | 1.4 | 4.1 | 2.0 | >5.2 | 3.5 | 3.5 | 1.6 | 3.9 | 2.3 | 2.0 | 3.2 | 3.0 | 3.8 | 3.1 | 2.3 | 4.2 | 2.3 | log reduction S. aureus [1, 10]: 3.3; log reduction S. aureus [1, 11]: 1.4; log reduction S. aureus [1, 12]: 3.8; log reduction S. aureus [1, 13]: 1.4; log reduction S. marcescens [2, 10]: 4.1; log reduction S. marcescens [2, 11]: 2.0; log reduction S. marcescens [2, 12]: >5.2; log reduction S. marcescens [2, 13]: 3.5; log reduction P. aeruginosa [3, 10]: 3.5; log reduction P. aeruginosa [3, 11]: 1.6; log reduction P. aeruginosa [3, 12]: 3.9; log reduction P. aeruginosa [3, 13]: 2.3; log reduction C. albicans [4, 10]: 2.0; log reduction C. albicans [4, 11]: 3.2; log reduction C. albicans [4, 12]: 3.0; log reduction C. albicans [4, 13]: 3.8; log reduction F. solani [5, 10]: 3.1; log reduction F. solani [5, 11]: 2.3; log reduction F. solani [5, 12]: 4.2; log reduction F. solani [5, 13]: 2.3 |

— patent US20070287752A1, “Ophthalmic Compositions Comprising A Branched, Glycerol Compound” (priority 2006, published 2007)
